“Also recorded” adds a separate entry of the source. Where a SMILES comes first, the peptide text is derived from it. The star is where a group is joined. Cbz = O=C(OCc1ccccc1)*
How the values were obtained:
hXBP1s [1] = test: ER stress time course in HEK293T cells, Western blot of hXBP1s; assay type: cell-based, human
Experimental: (§1) hXBP1s plays an essential role in regulating BMSC support of MM cell growth. […] To test this hypothesis, the time-dependent protein expression patterns of hXBP1s and phosphorylated JNKs (p-JNKs) was determined in cells that were challenged with either a persistent or transient ER stress, induced by either thapsigargin (Thg) or dithiothrietol (DTT), respectively. […] The protein level of hXBP1s started to decline at 6-hrs, and the reduction continued till 12-hr, the end of Thg treatment. In contrast, Thg induced the phosphorylation of JNKs from 6 to 12-hrs of Thg treatment. This activation of JNKs coincided with the decrease in hXBP1s protein levels within the same time frame of Thg treatment (FIG. 1A).
DTT is a reducing agent that disrupts oxidative protein folding in the ER. Since the effects of DTT are rapidly reversible, and DTT can be readily removed by washing, it was used to mimic intermittent ER stress on cells. HEK293T cells were treated with DTT for 30 minutes, then DTT was washed away, and the cells were harvested at various time points after DTT removal. […] In addition, the cells recovered and further increased hXBP is protein expression at 2- and 5-hr post DTT removal. This process coincided with a drastic reduction in JNKs' phosphorylation (FIG. 1B).
(§2) Total cell lysates were prepared with RIPA buffer containing protease inhibitor cocktail and phosphatase inhibitor cocktails I/II (Sigma-Aldrich). After centrifugation, total cell lysates then were separated by 10% sodium dodecyl sulfate polyacrylamide gel electrophoresis and analyzed by immunoblot analysis as described previously. Signals were detected with ECL reagents (GE Healthcare Life Sciences). Semi-quantification of data was performed using Image J. For immunoprecipitation assay, Cells were washed with ice-cold PBS and lysed with lysis buffer (50 mM Tris-HCl, pH 7.5; 150 mM NaCl, 0.1% (wt/vol) Nondiet P40, 1 mM Ethylenediaminetetraacetic acid (EDTA); […]; protease inhibitor cocktail and phosphatase inhibitor cocktails I/II (Sigma-Aldrich). After overnight incubation with Anti-HA-agarose beads (Roche) or anti-hXBP1s antibody at 4° C. on a rotator, following by addition of Protein G Agarose to the reaction containing anti-hXBP1s antibody for 2 h at 4° C. Immunoprecipitates were washed three times with cold lysis buffer and boiled for 5 min in 2× Laemmli buffer for elution of immunoprecipitated HA-hXBP1s or Flag-hXBP1s complex. Samples were resolved in SDS-PAGE (Bio-Rad) and immunoblotted with corresponding antibody.

p-JNKs = test: ER stress time course in HEK293T cells, Western blot of phosphorylated JNKs; assay type: cell-based, human; conditions: 30-minute treatment
Experimental: as §1
DTT is a reducing agent that disrupts oxidative protein folding in the ER. Since the effects of DTT are rapidly reversible, and DTT can be readily removed by washing, it was used to mimic intermittent ER stress on cells. […]
(§3) Total cell lysates were prepared with RIPA buffer containing protease inhibitor cocktail and phosphatase inhibitor cocktails I/II (Sigma-Aldrich). After centrifugation, total cell lysates then were separated by 10% sodium dodecyl sulfate polyacrylamide gel electrophoresis and analyzed by immunoblot analysis as described previously. Signals were detected with ECL reagents (GE Healthcare Life Sciences). […]

FLAG-hXBP1s [2] = test: Western blot of FLAG-hXBP1s (WT or S288A) in stably overexpressing KM101 cells; assay type: cell-based, human; conditions: for effect of pretreatment on anisomycin-induced repression of FLAG-hXBP1s protein level: then stimulated with anisomycin; for effect on steady-state protein level of hXBP1s S288A mutant: S288A mutant expressing KM101 cells
Experimental: as §2

hXbp1s mRNA = test: Real-time PCR of hXbp1s mRNA in FLAG-hXBP1s-overexpressing KM101 cells; assay type: cell-based, human
Experimental: Real-time PCR was performed as described previously. B-Actin was used as an internal control.

[3] = test system: HA-hXBP1s / MYC-β-TrCP binding; test: Co-immunoprecipitation of HA-hXBP1s with MYC-β-TrCP in HEK293T cells; assay type: cell-based, human; conditions: 10 nM JNKi for 4 hrs (FIG. 2F)
Experimental: as §2

VCAM-1 = test: TNFα-induced VCAM-1 protein expression in KM101 cells, Western blot; assay type: cell-based, human; conditions: for TNFα-induced VCAM-1 protein expression: KM101 cells expressing (WT) hXBP1s
Experimental: as §2

5-TGM cells = test: Adhesion of 5-TGM cells to TNFα-treated KM101 cells; assay type: cell-based, mouse
Experimental: Human kidney […], human BM stromal cell lines KM101 cells, mouse MM cell line 5-TGM1, human MM cell lines ANBL-6 and MM1.S were cultured as described. Mouse macrophage cell line RAW264.7 were cultured in DMEM supplemented with 10% FBS. Isolation of primary hBMSCs was performed as described. These studies were approved by the University of Pittsburgh institutional review board and by the VA Pittsburgh Healthcare System institutional animal care and use committee. MM cell growth assay, cell adhesion assays, OCL formation assay were performed as described (Xu et al., Blood, 119:4205-4214 (2012)).

IL-6 = test: TNFα-induced IL-6 production in KM101 cells, ELISA; assay type: cell-based, human
Experimental: To determine hIL-6 secretion by BMSCs, supernatants from cell cultures were collected and analyzed with hIL-6 ELISA read-set go kits (eBioscience) according to the manufacturer's instructions, the mice's serum concentration of IgG2b, RANKL, IL-6 and CTX-I were measured with their respectively ELISA kit (Quidel, Roche, Roche and MyBioSource).

hXBP1s [4] = test: Western blot of steady-state hXBP1s protein (endogenous and overexpressed) in HEK293T and KM101 cells; assay type: cell-based, human
Experimental: as §2

FLAG-hXBP1s [5] = test: Western blot of FLAG-hXBP1s in HEK293T cells co-transfected with MYC-β-TrCP and MKK7-JNKs; assay type: cell-based, human; conditions: pretreatment of HEK293T cells
Source text: Since JNKs repress hXBP1s protein expression, it was hypothesized that JNKs promote its β-TrCP binding and consequent degradation via the UPS-26S proteasome machinery. […] To determine the functional consequence of JNKs' potentiation of the physical interactions between MYC-β-TrCP and HA-hXBP1s. FLAG-XBP1s was overexpressed with a small/moderate amount of MYC-β-TrCP either in the presence or absence of MKK7-JNKs. […] Further, JNKs and MYC-β-TrCP's inhibition of FLAG-hXBP1s was abolished by pretreatment of cells with MG 132 (FIG. 2G). Consistent with the latter observation. […] Taking these observations together, it was concluded that JNKs promote the physical interactions between hXBP1s and D-TrCP, leading to the ubiquitination and consequent protein degradation of hXBP1s that results in a decrease in the steady-state levels of hXBP1s.
as §3

## O[C@H](CS)[C@H](O)CS (racemic) [DTT, dithiothreitol]
hXBP1s [1]; 30-minute treatment
  basal hXBP1s protein expression: quickly diminished
p-JNKs
  phosphorylation of JNKs: strongly induced

## CCOc1nc(NC(=O)Cc2cc(OC)ccc2OC)cc(N)c1C#N [JNKi VIII]
FLAG-hXBP1s [2]; KM101 cells
  steady-state protein level of overexpressed (WT) FLAG-hXBP1s: dose-dependent up-regulation
  effect of pretreatment on anisomycin-induced repression of FLAG-hXBP1s protein level: largely prevented
FLAG-hXBP1s [2]; KM101 cells, listed as JNKi
  steady-state protein level of overexpressed (WT) FLAG-hXBP1s: dose-dependently increased
FLAG-hXBP1s [2]
  effect on steady-state protein level of hXBP1s S288A mutant: completely abolished
hXbp1s mRNA
  mRNA expression of hXbp1s: no effect
[3]
  basal level binding of HA-hXBP1s with MYC-β-TrCP: abolished
VCAM-1
  TNFα-induced VCAM-1 protein expression: potentiated
VCAM-1; KM101 cells, with ANS
  ANS inhibition of TNFα-induced VCAM-1 expression in presence of the substance: compromised
5-TGM cells
  TNFα-induced stromal support of adhesion of 5-TGM cells: potentiated
IL-6
  TNFα-induced stromal production of IL-6: potentiated

## CC(C)C[C@@H](C=O)NC(=O)[C@H](CC(C)C)NC(=O)[C@H](CC(C)C)NC(=O)OCc1ccccc1 [MG132] (Cbz-Leu-Leu-Leu-aldehyde)
hXBP1s [4]
  steady-state level of both endogenous and overexpressed hXBP1s: promptly and greatly elevated
FLAG-hXBP1s [2]; KM101 cells
  discrepancy in protein expression of S288A mutant and WT hXBP1s: abolished
  effect of pretreatment on anisomycin-induced repression of FLAG-hXBP1s protein level: completely blocked
FLAG-hXBP1s [5]
  JNKs and MYC-β-TrCP's inhibition of FLAG-hXBP1s: abolished

## O=S(=O)(N=Cc1c(O)ccc2ccccc12)c1cccs1 [STF-083010]
VCAM-1
  TNFα-induced VCAM-1 protein expression: repressed
VCAM-1; KM101 cells, with JNKi
  JNKi's promotion of TNFα-induced stromal induction of VCAM-1: compromised
5-TGM cells
  TNFα-induced stromal support of adhesion of 5-TGM cells: repressed
5-TGM cells; with JNKi
  JNKi's promotion of stromal support to 5-TGM cells' adhesion: compromised
IL-6
  TNFα-induced stromal production of IL-6: repressed
IL-6; with JNKi
  JNKi's promotion of stromal production of IL-6: compromised

## C/C=C(/C)C(=O)O[C@H]1C(C)=C2[C@H]([C@@H]1OC(=O)CCCCCCC)[C@@](C)(OC(C)=O)C[C@H](OC(=O)CCC)[C@@]1(O)[C@H]2OC(=O)[C@@]1(C)O [Thg, thapsigargin]
hXBP1s [1]
  time at which endogenous hXBP1s peaked: 4 h
  time at which up-regulation of endogenous hXBP1s was first detected: 2 h
hXBP1s [1]; reduction continued till 12-hr
  time at which hXBP1s protein level started to decline: 6 h
hXBP1s [1]; treatment up to 12-hr
  protein expression of endogenous hXBP1s during persistent ER stress: time-dependent up-regulation

## COc1ccc(C[C@H]2NC[C@H](O)[C@H]2OC(C)=O)cc1 [anisomycin]
FLAG-hXBP1s [2]; KM101 cells
  steady-state protein level of overexpressed (WT) FLAG-hXBP1s: drastically decreased; also recorded: greatly reduced
FLAG-hXBP1s [2]
  effect on steady-state protein level of hXBP1s S288A mutant: completely lost its inhibitory effect
hXbp1s mRNA
  mRNA expression of hXbp1s: no effect
VCAM-1; listed as ANS
  TNFα-induced VCAM-1 protein expression: dose-dependently repressed; also recorded: dose-dependently blocked
VCAM-1; S288A mutant-overexpressing KM101 cells
  inhibitory effect on TNFα-induced VCAM-1 protein expression in S288A mutant cells: largely abolished

From patent publication US11137400B2, “Methods for predicting and determining responsiveness to activators of JNK kinase” (UNIVERSITY OF PITTSBURGH-OF THE COMMONWEALTH SYSTEM OF …, priority 2017, dated 2021)
